{
  "source": "patent US10011552B2",
  "about": "“Process for preparation of herbicidal carboxylic acid salts” (ROTAM AGROCHEM INTERNATIONAL COMPANY LIMITED, priority 2013, dated 2018)",
  "data": [
    {"assay": "pH value of the dried carboxylic acid salt in water", "type": "physicochemical", "details": "dried salt cake dissolved in water", "values": [
      {"smiles": "O=C([O-])c1c(Cl)ccc2cc(Cl)cnc12.[Na+]", "note": "[quinclorac-sodium]", "pH value in water": 10},
      {"smiles": "O=C(O)c1nc(Cl)ccc1Cl.OCCNCCO", "note": "[clopyralid-bis(2-hydroxyethyl)ammonium]", "pH value in water": 8},
      {"smiles": "COc1c(Cl)ccc(Cl)c1C(=O)[O-].[Na+]", "note": "[dicamba-sodium]", "pH value in water": 7},
      {"smiles": "Cc1cc(Cl)ccc1OCC(=O)[O-].[K+]", "note": "[MCPA-potassium]", "pH value in water": 9}
    ]}
  ]
}
